Article PMC10779116, “Madurastatins with Imidazolidinone Rings: Natural Products or Side-Reaction Products from Extraction Solvents?” (International Journal of Molecular Sciences, 2023)
pIC50: −log10 of the molar value.

What was measured:
[1] = test system: T. cruzi Y strain; assay: Antiparasitic activity on T. cruzi: image-based intracellular amastigote assay in infected U2OS cells; format: cell-based, Trypanosoma cruzi; conditions: T. cruzi in U2OS host cells, 3 days, normalized by DMSO and benznidazole controls; for Inhibition norm. inf. ratio IC50: number of infected host cells; for pIC50: Trypanosoma cruzi, 72 h, number of parasites in host cell cytoplasm, read-out: Inhibition norm. para. num. IC50
Procedure: All compounds isolated were tested against Trypanosoma cruzi and Leishmania donovani, using the liquid microdilution method. Madurastatins were not active against L. donovani at the highest concentration tested, showing IC50 values higher than 50 µM. […] Human osteosarcoma cell line U2OS (ATCC HTB-96) and rhesus monkey kidney epithelial cell LLM-MK2 (ATCC CCL-7) were purchased from the American Type Culture Collection (ATCC, Manassas, VA, USA). T. cruzi Y strain was maintained as tissue culture trypomastigotes (TCT) by infection to LLC-MK2 cell line. The U2OS human cell was cultivated in DMEM-high-glucose media supplemented with 10% heat-inactivated fetal bovine serum (FBS, Thermo Fisher Scientific, Waltham, MA, USA). To visualize amastigote replication, U2OS cells were seeded in a 384-well plate (4 × 10^3 cells/well) and infected with 5 × 10^4 TCT parasites in DMEM-low-glucose media supplemented with 2% heat-inactivated FBS as previously described. The reference drug 400 μM of benznidazole (positive control), 0.5% DMSO (negative control), and the tested samples were treated on the day of assay and then incubated for 3 days at 37 °C, 5% CO2. After incubation was completed, the cells and parasites were fixed with 4% paraformaldehyde (PFA), and the DNA was stained with 5 μM DRAQ5 (Biostatus, Shepshed, Leicestershire, UK) followed by image acquisition using an automated confocal microscope (Operetta CLS, PerkinElmer, Waltham, MA, USA) with a […] laser at 20× objective. The acquired images were analyzed with Columbus software (v2.3) (PerkinElmer) to quantify cell numbers, parasites numbers, and infection ratio. Data were normalized by positive and negative controls. The activity of the tested samples was determined in terms of IC50 and CC50 calculated with XLfit software (v5) (IDBS, Boston, MA, USA). The quality of the assay data was assessed with Z’ factor, assay windows, and CV [37].

[2] = test system: U2OS cells; assay: Host cell cytotoxicity (cell ratio) in the T. cruzi assay; format: cell-based, Human; conditions: number of U2OS host cells in T. cruzi assay, 3 days
From the text: Human osteosarcoma cell line U2OS (ATCC HTB-96) and rhesus monkey kidney epithelial cell LLM-MK2 (ATCC CCL-7) were purchased from the American Type Culture Collection (ATCC, Manassas, VA, USA). T. cruzi Y strain was maintained as tissue culture trypomastigotes (TCT) by infection to LLC-MK2 cell line. The U2OS human cell was cultivated in DMEM-high-glucose media supplemented with 10% heat-inactivated fetal bovine serum (FBS, Thermo Fisher Scientific, Waltham, MA, USA). To visualize amastigote replication, U2OS cells were seeded in a 384-well plate (4 × 10^3 cells/well) and infected with 5 × 10^4 TCT parasites in DMEM-low-glucose media supplemented with 2% heat-inactivated FBS as previously described. The reference drug 400 μM of benznidazole (positive control), 0.5% DMSO (negative control), and the tested samples were treated on the day of assay and then incubated for 3 days at 37 °C, 5% CO2. After incubation was completed, the cells and parasites were fixed with 4% paraformaldehyde (PFA), and the DNA was stained with 5 μM DRAQ5 (Biostatus, Shepshed, Leicestershire, UK) followed by image acquisition using an automated confocal microscope (Operetta CLS, PerkinElmer, Waltham, MA, USA) with a […] laser at 20× objective.
(§1) The acquired images were analyzed with Columbus software (v2.3) (PerkinElmer) to quantify cell numbers, parasites numbers, and infection ratio. Data were normalized by positive and negative controls. The activity of the tested samples was determined in terms of IC50 and CC50 calculated with XLfit software (v5) (IDBS, Boston, MA, USA). The quality of the assay data was assessed with Z’ factor, assay windows, and CV [37].

[3] = test system: L. donovani MHOM/ET/67/HU3; assay: Antiparasitic activity on L. donovani: image-based intracellular assay in infected differentiated THP-1 cells; format: cell-based, Leishmania donovani; conditions: L. donovani in PMA-differentiated THP-1 host cells, 3 days, normalized by controls; for Inhibition norm. inf. ratio IC50: number of infected host cells; for pIC50: Leishmania donovani, 72 h, number of parasites in host cell cytoplasm, read-out: Inhibition norm. para. num. IC50
Procedure: All compounds isolated were tested against Trypanosoma cruzi and Leishmania donovani, using the liquid microdilution method. Madurastatins were not active against L. donovani at the highest concentration tested, showing IC50 values higher than 50 µM.
(§2) Human monocyte cell line THP-1 (ATCC TIB-202) was purchased from the American Type Culture Collection (ATCC). The assay for activity against L. donovani was performed as previously described. L. donovani MHOM/ET/67/HU3 was cultivated as promastigotes at 28 °C in M199 (Sigma-Aldrich, St. Louis, MO, USA) with 40 mM HEPES, 0.1 mM adenine, 0.0001% biotin, and 4.62 mM NaHCO3, supplemented with 10% heat-inactivated FBS and incubated 6 days before infection to enrich the proportion of metacyclic promastigotes. THP-1 was cultivated in RPMI medium (Thermo Fisher Scientific) supplemented with 10% heat-inactivated FBS and differentiated with 50 ng/mL of phorbol 12-myristate 13-acetate (PMA, Sigma-Aldrich) before infection. Purified L. donovani parasites were seeded with 1:20 infection ratio in 384-well plates and incubated for 24 h, then followed by the treatment of 4 μM amphotericin B (Sigma-Aldrich) as positive control, 0.5% DMSO as negative control, and tested samples. After additional incubation for 3 days at 37 °C, 5% CO2, the cells and parasites were fixed with 4% PFA and stained with 5 μM DRAQ5. Fluorescent images were acquired from each well using an automated confocal microscope (Operetta CLS) with a […] laser at 20× objective.
as §1

[4] = test system: THP-1 cells; assay: Host cell cytotoxicity (cell ratio) in the L. donovani assay; format: cell-based, Human; conditions: number of THP-1 host cells in L. donovani assay, 3 days
Procedure: as §2, §1

Row | Compound | Inhibition norm. inf. ratio IC50 [1] [µM] | pIC50 [1] | Cell ratio (%) CC50 [2] [µM] | Inhibition norm. inf. ratio IC50 [3] [µM] | pIC50 [3] | Cell ratio (%) CC50 [4] [µM]
1 | C[C@@H]1N(C)[C@@H](CCCN(O)C(=O)CCNC(=O)CNC(=O)[C@H]2COC(c3ccccc3O)=N2)C(=O)N1[C@H]1CCCN(O)C1=O [33-epi D1 (3), 33-epi-madurastatin D1] | >50 | 4.34 | >50 | >50 | < 4.30 | >50
2 | CN1[C@@H](CCCN(O)C(=O)CCNC(=O)CNC(=O)[C@@H](CO)NC(=O)c2ccccc2O)C(=O)N([C@H]2CCCN(O)C2=O)C1(C)C [H2 (2), madurastatin H2] | >50 | < 4.30 | >50 | >50 | < 4.30 | >50
3 | CC1N(C)C(CCCN(O)C(=O)CCNC(=O)CNC(=O)C2COC(c3ccccc3O)=N2)C(=O)N1C1CCCN(O)C1=O (stereo not drawn) [D1 (4), madurastatin D1] | >50 | 4.56 | 46.77 | >50 | < 4.30 | >50
4 | CN1C(CCCN(O)C(=O)CCNC(=O)CNC(=O)C2COC(c3ccccc3O)=N2)C(=O)N(C2CCCN(O)C2=O)C1(C)C (stereo not drawn) [D2 (5), madurastatin D2] | >50 | 5.05 | 24.74 | >50 | < 4.30 | >50
5 | CNC(CCCN(O)C(=O)CCNC(=O)CNC(=O)C1COC(c2ccccc2O)=N1)C(=O)NC1CCCN(O)C1=O (stereo not drawn) [C1 (1), madurastatin C1] | >50 | 4.51 | >50 | >50 | < 4.30 | >50
